Source: patent US9044429B2, “Personal care compositions comprising a methyl naphthalenyl ketone or a derivative thereof” (The Gillette Company, priority 2010, dated 2015)

Tests used:
Assay type in all cases: cell-based
[1] = molecular target: T1, human TRPA1 (Homo sapiens, UniProt O75762); assay: Pre-Incubation Test (FLIPR intracellular calcium, HEK-293 cells, AITC activator); settings: test compound final 100 μM
T1 construct: expressed in transfected cells; host or cells: HEK-293
Protocol: (§1) The Pre-Incubation Test and Direct Addition Test Methods, as defined herein, can be conducted on either TRPV1 or TRPA1 receptors.
(§2) Pre-Incubation Test Method: First, the intracellular calcium ion (Ca^+2) levels in TRPV1 and TRPA1 receptors is measured. HEK-293 (human embryonic kidney) cells stably transfected with human TRPV1 or TRPA1 are grown in 15 ml growth medium [high glucose DMEM (Dulbecco's Modification of Eagle's Medium) supplemented with 10% FBS (fetal bovine serum), 100 μg/ml Penicillin/streptomycin, 100 μg/ml G418] in a 75 Cm^2 flask for 3 days at 33° C. in a mammalian cell culture incubator set at 5% CO2. Cells are detached with addition of 10 ml of PBS (phosphate buffered saline) by hand shaking gently. […] Fluo-4 is a fluorescent dye used for quantifying cellular Ca^2+ concentrations in the 100 nM to 1 microM range. […]
(§3) The pellet cells are re-suspended in 10 ml assay buffer and 90 μl aliquots (50,000 cells) per well delivered to a 96-well assay plate containing 10 μl of test compounds (1 mM in assay buffer, final concentration 100 μM) or buffer control and incubated at room temperature for 30 minutes. After 30 minutes, the plate is placed into a fluorometric imaging plate reader (FLIPR^384 from Molecular Devices) and basal fluorescence recorded (excitation wave length 488 nm and emission wave length 510 nm). […]

[2] = molecular target: T2, human TRPV1 (Homo sapiens, UniProt Q8NER1); assay: Pre-Incubation Test (FLIPR intracellular calcium, HEK-293 cells, capsaicin activator); settings: test compound final 100 μM
T2 construct: expressed in transfected cells; host or cells: HEK-293
Protocol: as §1, §2, §3

[3] = molecular target: T1, human TRPA1; assay: Direct Addition Test (FLIPR intracellular calcium, HEK-293 cells); settings: compound final 100 μM
Protocol: as §1
(§4) Pre-Incubation Test Method: First, the intracellular calcium ion (Ca^+2) levels in TRPV1 and TRPA1 receptors is measured. HEK-293 (human embryonic kidney) cells stably transfected with human TRPV1 or TRPA1 are grown in 15 ml growth medium [high glucose DMEM (Dulbecco's Modification of Eagle's Medium) supplemented with 10% FBS (fetal bovine serum), 100 μg/ml Penicillin/streptomycin, 100 μg/ml G418] in a 75 Cm^2 flask for 3 days at 33° C. in a mammalian cell culture incubator set at 5% CO2. Cells are detached with addition of 10 ml of PBS (phosphate buffered saline) by hand shaking gently. Cells are transferred to a 50 ml tube and centrifuged at 850 rpm for 3 minutes to remove PBS. After centrifugation, a pellet of cells is formed in the bottom of the tube separating them from the supernatant solution. The supernatant is discarded and the cell pellet is suspended in 1 ml of fresh growth medium to which 5 μl (12.5 μg) of Fluo-4 AM (Molecular Probes, Inc.) calcium indicator is added and incubated for 30 min with gentle shaking on a plate shaker. Fluo-4 is a fluorescent dye used for quantifying cellular Ca^2+ concentrations in the 100 nM to 1 microM range. At the end of the 30 minutes, 45 ml of assay buffer [1×HBSS (Hank's Balanced Salt Solution), 20 mM HEPES (4-(2-Hydroxyethyl)-1-piperazineethanesulfonic acid)] is added to wash cells and the resulting combination is then centrifuged at 850 rpm for 3 minutes to remove excess buffer and Fluo-4 AM calcium indicator.
(§5) The pellet cells are re-suspended in 10 ml assay buffer and 90 μl aliquots (50,000 cells) per well delivered to a 96-well assay plate containing 10 μl of test compounds (1 mM in assay buffer, final concentration 100 μM) or buffer control and incubated at room temperature for 30 minutes. After 30 minutes, the plate is placed into a fluorometric imaging plate reader (FLIPR^384 from Molecular Devices) and basal fluorescence recorded (excitation wave length 488 nm and emission wave length 510 nm). […] Then 20 μl of the activators [1.8 μM Capsaicin (final concentration 300 nM) for TRPV1 or 300 μM AITC (final concentration 50 μM) for TRPA1 is added by FLIPR automatically and fluorescence recorded immediately.
(§6) Direct Addition Test Method (for determining the direct effect of test compounds on TRPV1 and TRPA1): All procedures are same as the pre-incubation test except 10 μl assay buffer instead of 10 μl test compounds in the 96-well assay plates. The fluorescence is measured immediately after addition of 20 μl of 600 μM each compound (final concentration 100 μM). […] The percentage of up-regulation or down-regulation is calculated based on the fluorescence measurement.

[4] = molecular target: T2, human TRPV1; assay: as above; settings: compound final 100 μM
Protocol: as §1, §4, §5, §6

[5] = calculated from fluorescence relative to activator

T2 sequence (Q8NER1 whole entry): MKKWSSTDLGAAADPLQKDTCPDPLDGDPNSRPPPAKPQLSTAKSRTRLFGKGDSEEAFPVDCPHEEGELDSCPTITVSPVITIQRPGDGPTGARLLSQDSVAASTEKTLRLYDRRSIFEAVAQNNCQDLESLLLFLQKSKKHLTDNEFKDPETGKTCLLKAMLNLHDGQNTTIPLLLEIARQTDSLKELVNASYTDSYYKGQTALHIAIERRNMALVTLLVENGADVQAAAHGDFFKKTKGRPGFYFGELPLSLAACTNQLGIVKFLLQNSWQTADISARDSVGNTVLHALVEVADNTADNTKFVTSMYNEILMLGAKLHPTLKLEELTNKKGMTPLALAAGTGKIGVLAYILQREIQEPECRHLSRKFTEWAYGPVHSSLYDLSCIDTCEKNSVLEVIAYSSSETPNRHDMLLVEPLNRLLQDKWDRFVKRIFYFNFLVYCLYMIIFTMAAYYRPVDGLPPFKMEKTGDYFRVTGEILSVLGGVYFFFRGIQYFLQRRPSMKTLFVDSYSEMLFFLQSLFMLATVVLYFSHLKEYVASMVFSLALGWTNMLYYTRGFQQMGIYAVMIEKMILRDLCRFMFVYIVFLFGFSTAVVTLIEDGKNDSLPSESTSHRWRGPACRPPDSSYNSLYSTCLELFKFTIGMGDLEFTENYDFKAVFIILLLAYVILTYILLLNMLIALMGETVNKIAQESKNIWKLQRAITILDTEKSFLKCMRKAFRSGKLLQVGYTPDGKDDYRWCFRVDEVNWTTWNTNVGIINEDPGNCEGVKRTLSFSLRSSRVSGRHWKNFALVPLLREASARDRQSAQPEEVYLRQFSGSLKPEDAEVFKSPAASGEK
T1 sequence (O75762 whole entry): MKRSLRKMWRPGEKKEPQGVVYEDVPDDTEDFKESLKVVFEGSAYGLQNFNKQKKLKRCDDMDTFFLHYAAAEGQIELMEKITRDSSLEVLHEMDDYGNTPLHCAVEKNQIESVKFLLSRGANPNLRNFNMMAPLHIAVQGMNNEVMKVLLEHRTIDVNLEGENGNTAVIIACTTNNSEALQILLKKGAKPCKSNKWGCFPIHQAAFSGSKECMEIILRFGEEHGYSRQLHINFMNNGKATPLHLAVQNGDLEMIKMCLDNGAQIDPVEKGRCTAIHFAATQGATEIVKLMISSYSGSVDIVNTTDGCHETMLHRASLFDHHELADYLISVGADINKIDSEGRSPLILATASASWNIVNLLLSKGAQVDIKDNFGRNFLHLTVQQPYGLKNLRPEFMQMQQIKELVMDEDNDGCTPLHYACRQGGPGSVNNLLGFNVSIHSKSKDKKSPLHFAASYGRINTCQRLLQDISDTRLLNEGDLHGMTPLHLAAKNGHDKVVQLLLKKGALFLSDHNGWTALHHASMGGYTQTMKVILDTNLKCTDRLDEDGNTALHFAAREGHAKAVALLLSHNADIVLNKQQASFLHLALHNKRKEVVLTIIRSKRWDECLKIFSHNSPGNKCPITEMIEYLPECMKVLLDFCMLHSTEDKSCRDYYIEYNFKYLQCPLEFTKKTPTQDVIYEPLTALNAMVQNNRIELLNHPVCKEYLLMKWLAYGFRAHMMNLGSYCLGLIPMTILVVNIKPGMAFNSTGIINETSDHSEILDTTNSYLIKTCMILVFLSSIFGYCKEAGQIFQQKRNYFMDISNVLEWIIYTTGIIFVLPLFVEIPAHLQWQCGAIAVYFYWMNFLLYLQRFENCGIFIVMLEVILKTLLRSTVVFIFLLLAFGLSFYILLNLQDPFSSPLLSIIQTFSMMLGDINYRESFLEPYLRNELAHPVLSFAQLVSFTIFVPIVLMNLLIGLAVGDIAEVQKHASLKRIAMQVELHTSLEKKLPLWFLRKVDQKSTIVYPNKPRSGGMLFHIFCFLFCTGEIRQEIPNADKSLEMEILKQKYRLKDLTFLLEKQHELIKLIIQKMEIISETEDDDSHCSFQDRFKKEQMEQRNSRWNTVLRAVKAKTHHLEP

Fluorescence value after adding Iso E Super ([1]; 30 min at room temperature, then AITC final 50 μM): −57.37 fluorescence units
% Regulation [1, 5]: −0.40%
Fluorescence value after adding Iso E Super ([2]; 30 min at room temperature, then capsaicin final 300 nM): 2334.51 fluorescence units
% Regulation [2, 5]: 21.82%
% Regulation [3, 5]: 11.53%
Fluorescence value after adding Iso E Super ([3]; measured immediately): 1386.593 fluorescence units
% Regulation [4, 5]: −0.71%
Fluorescence value after adding Iso E Super ([4]; measured immediately): −82.62 fluorescence units
Compound: CC(=O)C1(C)CC2=C(CCCC2(C)C)CC1C (centres unmarked) [Iso E Super, 1-(1,2,3,4,5,6,7,8-octahydro-2,3,8,8-tetramethyl-2naphthalenyl)-ethan-1-one]
